The test system of experiment [1] is SK-OV-3. The experiment is described as follows: In vitro cytotoxicity of compound was determined against SKOV-3 cell lines at 37 degree C for 96 hr. It counts as functional, Homo sapiens.
Experiment [2] deals with Nucleic Acid. The experiment is described as follows: Change in thermal denaturation temperature determined from calf thymus DNA after incubation at 37 degree celsius for 18 hours. As to conditions: Bos taurus. It is filed as functional.
The subject of experiment [3] is A2780. The experiment is described as follows: In vitro cytotoxicity of compound was determined against A2780 cell lines at 37 degree C for 96 hr. It is filed as functional, Homo sapiens.
Experiment [4] deals with CH1. In words: In vitro cytotoxicity of compound was determined against CH1 cell lines at 37 degree C for 96 hr. It is filed as functional, Homo sapiens.
Experiment [5] in a line: Resistance factor of compound was determined from cisplatin resistant CH1 cell lines to that of CH1 cell lines. It is filed as functional.
A short description of experiment [6]: Resistance factor of compound was determined from cisplatin resistant A2780 cell lines to that of A2780 cell lines. It counts as functional.
The test system of experiment [7] is Nucleic Acid. The experiment is described as follows: Change in thermal denaturation temperature determined from calf thymus DNA after incubation at 37 degree celsius for 0 hours. It counts as functional. Particulars: Bos taurus.
For experiment [8], the system named is CH1. In words: In vitro cytotoxicity of compound was determined against CH1 (cisplatin resistant) cell lines at 37 degree C for 96 hr. It counts as functional, Homo sapiens.
In experiment [9] the test system is Nucleic Acid. The experiment is described as follows: Change in thermal denaturation temperature determined from calf thymus DNA after incubation at 37 degree celsius for 4 hours. It counts as functional. As to conditions: Bos taurus.
Experiment [10] deals with A2780. In words: In vitro cytotoxicity of compound was determined against A2780 cell lines (cisplatin resistant) at 37 degree C for 96 hr. It is filed as functional, Homo sapiens.

A word on the ΔTm: it is the shift of the melting midpoint relative to a reference.

Consider `COc1cc2c(cc1OC)C(=O)N1CCC[C@H]1C=N2`, for which the Cytotoxicity was 1.7 µM in experiment [1]; 0.064 µM in experiment [3]; 0.082 µM in [4]; 0.11 µM in experiment [8]; 0.155 µM in experiment [10]. Besides, the ΔTm was found to be 0.57 °C in [2], 0.24 °C in experiment [7] and 0.43 °C in experiment [9]. For the same compound, the results for the Resistance factor in experiment [5] and in [6] were 1.3 and 2.4, respectively.

Regarding `C=C1C[C@H]2C=Nc3cc(OC)c(OC)cc3C(=O)N2C1`, the Cytotoxicity in experiment [1] amounted to 0.39 µM; in [3], 0.15 µM; in experiment [4] it was 0.066 µM; in experiment [8] it was 0.084 µM; in experiment [10], 0.36 µM. In addition, the ΔTm amounted to 2.38 °C in [2], 1.46 °C in [7] and 1.95 °C in experiment [9]. Also, the Resistance factor is recorded as 1.3 in [5] and 2.4 in [6].

`C/C=C1/C[C@H]2C=Nc3cc(OCc4ccccc4)c(OC)cc3C(=O)N2C1`: the Cytotoxicity was determined as 0.081 µM in experiment [1]; 0.034 µM in [3]; 0.031 µM in [4]; 0.031 µM in experiment [8]; 0.066 µM in experiment [10]. The thermal shift (ΔTm) in experiment [2] is 2.34 °C; in [7] it was 0.92 °C; in experiment [9] it was 1.65 °C. For the same compound, the values for the Resistance factor in [5] and in experiment [6] were 1 and 1.9, respectively.

As to `COc1cc2c(cc1OCc1ccccc1)N=C[C@@H]1CCCN1C2=O`, the Cytotoxicity in experiment [1] worked out at 0.46 µM; in experiment [3], 0.17 µM; in [4] it was 0.145 µM; in [8], 0.145 µM; in experiment [10] it was 0.48 µM. Besides, the ΔTm stood at 0.4 °C in experiment [2], 0.2 °C in experiment [7] and 0.4 °C in [9]. In addition, the Resistance factor in [5] was found to be 1; in [6] it was 2.8.

As to `C=C1C[C@H]2C=Nc3cc(OCc4ccccc4)c(OC)cc3C(=O)N2C1`, the Cytotoxicity in [1] came to 0.35 µM; in experiment [3], 0.029 µM; in experiment [4], 0.017 µM; in experiment [8], 0.082 µM; in [10], 0.2 µM. For the same compound, the ΔTm in experiment [2] is 1.33 °C; in experiment [7], 1.01 °C; in experiment [9] it was 1.22 °C. For the same compound, the Resistance factor worked out at 4.8 in experiment [5] and 6.9 in [6].

As for `C/C=C1/C[C@H]2C=Nc3cc(O)c(OC)cc3C(=O)N2C1`, the Cytotoxicity in experiment [4] came out at 0.00013 µM.

For `C/C=C1/C[C@H]2C=Nc3cc(OC)c(OC)cc3C(=O)N2C1`, the Cytotoxicity in experiment [1] came to 0.135 µM; in experiment [3] it was 0.071 µM; in experiment [4] it was 0.035 µM; in experiment [8], 0.056 µM; in experiment [10], 0.14 µM. For the same compound, the ΔTm in experiment [2] came out at 1.86 °C; in [7], 0.84 °C; in [9], 1.47 °C. The Resistance factor worked out at 1.6 in experiment [5] and 1.9 in experiment [6].

Source of the values: ChEMBL document CHEMBL1133276, “Effect of C2-exo unsaturation on the cytotoxicity and DNA-binding reactivity of pyrrolo[2,1-c][1,4]benzodiazepines” (2000).
